Patent US20040156869A1, “2-substituted quinazolin-4-ylamine analogues” (Neurogen Corporation, priority 2002, published 2004)
pKi: −log10 of the molar value.

Molecular target: human capsaicin receptor (VR1) (Homo sapiens, UniProt Q8NER1)
Test: Capsaicin receptor binding assay ([3H]RTX competition, VR1-transfected HEK293 membranes)

Chain of human capsaicin receptor (VR1) (Q8NER1 whole entry): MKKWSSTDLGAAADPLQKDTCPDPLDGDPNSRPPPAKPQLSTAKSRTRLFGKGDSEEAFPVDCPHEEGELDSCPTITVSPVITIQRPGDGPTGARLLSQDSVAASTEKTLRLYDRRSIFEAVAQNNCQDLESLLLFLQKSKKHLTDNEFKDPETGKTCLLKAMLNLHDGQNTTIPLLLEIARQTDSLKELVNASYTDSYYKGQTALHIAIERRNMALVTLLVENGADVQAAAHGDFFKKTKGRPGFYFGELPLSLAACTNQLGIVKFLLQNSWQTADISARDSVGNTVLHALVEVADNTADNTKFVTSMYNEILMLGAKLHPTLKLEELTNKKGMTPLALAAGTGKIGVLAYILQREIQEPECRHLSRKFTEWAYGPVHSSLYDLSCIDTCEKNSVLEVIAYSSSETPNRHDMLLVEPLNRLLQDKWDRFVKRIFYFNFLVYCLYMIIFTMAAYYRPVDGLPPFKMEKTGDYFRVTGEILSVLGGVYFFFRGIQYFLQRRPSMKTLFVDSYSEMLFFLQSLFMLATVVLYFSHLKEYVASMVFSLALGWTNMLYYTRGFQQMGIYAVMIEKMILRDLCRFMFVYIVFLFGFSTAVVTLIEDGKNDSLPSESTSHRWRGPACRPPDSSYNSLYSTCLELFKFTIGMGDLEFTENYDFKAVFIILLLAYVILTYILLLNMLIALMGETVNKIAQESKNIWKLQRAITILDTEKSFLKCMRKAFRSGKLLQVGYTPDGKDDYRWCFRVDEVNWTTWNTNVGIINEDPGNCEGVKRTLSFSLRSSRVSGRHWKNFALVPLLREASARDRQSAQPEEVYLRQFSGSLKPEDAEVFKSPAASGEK

| pKi | Structure (SMILES) |
| --- | --- |
| > 6.00 | CN(C)CCCNC(=O)c1nc(Nc2ccc(C(F)(F)F)cc2)c2ccc(-c3ncccc3C(F)(F)F)nc2n1 [Compound 436, 4-(4-Trifluoromethyl-phenylamino)-7-(3-trifluoromethyl-pyridin-2-yl)-pyrido[2,3-d]pyrimidine-2-carboxylic acid (3-dimethylamino-propyl)-amide] |
| > 6.00 | O=C(NCCN1CCCC1)c1nc(Nc2ccc(C(F)(F)F)cc2)c2ccc(-c3ncccc3C(F)(F)F)nc2n1 [Compound 437, 4-(4-Trifluoromethyl-phenylamino)-7-(3-trifluoromethyl-pyridin-2-yl)-pyrido[2,3-d]pyrimidine-2-carboxylic acid (2-pyrrolidin-1-yl-ethyl)-amide] |
| > 6.00 | CCN(CC)CCNC(=O)c1nc(Nc2ccc(C(F)(F)F)cc2)c2ccc(-c3ncccc3C(F)(F)F)nc2n1 [Compound 438, 4-(4-Trifluoromethyl-phenylamino)-7-(3-trifluoromethyl-pyridin-2-yl)-pyrido[2,3-d]pyrimidine-2-carboxylic acid (2-diethylamino-ethyl)-amide] |
| > 6.00 | O=C(NCCN1CCCCC1)c1nc(Nc2ccc(C(F)(F)F)cc2)c2ccc(-c3ncccc3C(F)(F)F)nc2n1 [Compound 439, 4-(4-Trifluoromethyl-phenylamino)-7-(3-trifluoromethyl-pyridin-2-yl)-pyrido[2,3-d]pyrimidine-2-carboxylic acid (2-piperidin-1-yl-ethyl)-amide] |
| > 6.00 | CN1CCCC1CCNC(=O)c1nc(Nc2ccc(C(F)(F)F)cc2)c2ccc(-c3ncccc3C(F)(F)F)nc2n1 (stereo not shown) [Compound 440, 4-(4-Trifluoromethyl-phenylamino)-7-(3-trifluoromethyl-pyridin-2-yl)-pyrido[2,3-d]pyrimidine-2-carboxylic acid [2-(1-methyl-pyrrolidin-2-yl)-ethyl]-amide] |
| > 6.00 | CCN(CC)CCCNC(=O)c1nc(Nc2ccc(C(F)(F)F)cc2)c2ccc(-c3ncccc3C(F)(F)F)nc2n1 [Compound 441, 4-(4-Trifluoromethyl-phenylamino)-7-(3-trifluoromethyl-pyridin-2-yl)-pyrido[2,3-d]pyrimidine-2-carboxylic acid (3-diethylamino-propyl)-amide] |
| > 6.00 | O=C(NCCN1CCOCC1)c1nc(Nc2ccc(C(F)(F)F)cc2)c2ccc(-c3ncccc3C(F)(F)F)nc2n1 [Compound 442, 4-(4-Trifluoromethyl-phenylamino)-7-(3-trifluoromethyl-pyridin-2-yl)-pyrido[2,3-d]pyrimidine-2-carboxylic acid (2-morpholin-4-yl-ethyl)-amide] |
| > 6.00 | O=C(NCCCN1CCOCC1)c1nc(Nc2ccc(C(F)(F)F)cc2)c2ccc(-c3ncccc3C(F)(F)F)nc2n1 [Compound 443, 4-(4-Trifluoromethyl-phenylamino)-7-(3-trifluoromethyl-pyridin-2-yl)-pyrido[2,3-d]pyrimidine-2-carboxylic acid (3-morpholin-4-yl-propyl)-amide] |
| > 6.00 | CC(CN(C)C)NC(=O)c1nc(Nc2ccc(C(F)(F)F)cc2)c2ccc(-c3ncccc3C(F)(F)F)nc2n1 (stereo not shown) [Compound 444, 4-(4-Trifluoromethyl-phenylamino)-7-(3-trifluoromethyl-pyridin-2-yl)-pyrido[2,3-d]pyrimidine-2-carboxylic acid (2-dimethylamino-1-methyl-ethyl)-amide] |
| > 6.00 | CCN(CC)CCCC(C)NC(=O)c1nc(Nc2ccc(C(F)(F)F)cc2)c2ccc(-c3ncccc3C(F)(F)F)nc2n1 (stereo not shown) [Compound 446, 4-(4-Trifluoromethyl-phenylamino)-7-(3-trifluoromethyl-pyridin-2-yl)-pyrido[2,3-d]pyrimidine-2-carboxylic acid (4-diethylamino-1-methyl-butyl)-amide] |
| > 6.00 | CN1C(C)(C)CC(NC(=O)c2nc(Nc3ccc(C(F)(F)F)cc3)c3ccc(-c4ncccc4C(F)(F)F)nc3n2)CC1(C)C [Compound 447, 4-(4-Trifluoromethyl-phenylamino)-7-(3-trifluoromethyl-pyridin-2-yl)-pyrido[2,3-d]pyrimidine-2-carboxylic acid (1,2,2,6,6-pentamethyl-piperidin-4-yl)-amide] |
| > 6.00 | CN1CCC(NC(=O)c2nc(Nc3ccc(C(F)(F)F)cc3)c3ccc(-c4ncccc4C(F)(F)F)nc3n2)CC1 [Compound 448, 4-(4-Trifluoromethyl-phenylamino)-7-(3-trifluoromethyl-pyridin-2-yl)-pyrido[2,3-d]pyrimidine-2-carboxylic acid (1-methyl-piperidin-4-yl)-amide] |
| > 6.00 | CNC(=O)c1nc(Nc2ccc(C(F)(F)F)cc2)c2ccc(-c3ncccc3C(F)(F)F)nc2n1 [Compound 449, 4-(4-Trifluoromethyl-phenylamino)-7-(3-trifluoromethyl-pyridin-2-yl)-pyrido[2,3-d]pyrimidine-2-carboxylic acid methylamide] |
| > 6.00 | CCNC(=O)c1nc(Nc2ccc(C(F)(F)F)cc2)c2ccc(-c3ncccc3C(F)(F)F)nc2n1 [Compound 450, 4-(4-Trifluoromethyl-phenylamino)-7-(3-trifluoromethyl-pyridin-2-yl)-pyrido[2,3-d]pyrimidine-2-carboxylic acid ethylamide] |
| > 6.00 | C=CCNC(=O)c1nc(Nc2ccc(C(F)(F)F)cc2)c2ccc(-c3ncccc3C(F)(F)F)nc2n1 [Compound 451, 4-(4-Trifluoromethyl-phenylamino)-7-(3-trifluoromethyl-pyridin-2-yl)-pyrido[2,3-d]pyrimidine-2-carboxylic acid allylamide] |
| > 6.00 | CCCNC(=O)c1nc(Nc2ccc(C(F)(F)F)cc2)c2ccc(-c3ncccc3C(F)(F)F)nc2n1 [Compound 452, 4-(4-Trifluoromethyl-phenylamino)-7-(3-trifluoromethyl-pyridin-2-yl)-pyrido[2,3-d]pyrimidine-2-carboxylic acid propylamide] |
| > 6.00 | O=C(NCC1CC1)c1nc(Nc2ccc(C(F)(F)F)cc2)c2ccc(-c3ncccc3C(F)(F)F)nc2n1 [Compound 453, 4-(4-Trifluoromethyl-phenylamino)-7-(3-trifluoromethyl-pyridin-2-yl)-pyrido[2,3-d]pyrimidine-2-carboxylic acid cyclopropylmethyl-amide] |
| > 6.00 | CCOCCNC(=O)c1nc(Nc2ccc(C(F)(F)F)cc2)c2ccc(-c3ncccc3C(F)(F)F)nc2n1 [Compound 454, 4-(4-Trifluoromethyl-phenylamino)-7-(3-trifluoromethyl-pyridin-2-yl)-pyrido[2,3-d]pyrimidine-2-carboxylic acid (2-ethoxy-ethyl)-amide] |
| > 6.00 | COCCNC(=O)c1nc(Nc2ccc(C(F)(F)F)cc2)c2ccc(-c3ncccc3C(F)(F)F)nc2n1 [Compound 455, 4-(4-Trifluoromethyl-phenylamino)-7-(3-trifluoromethyl-pyridin-2-yl)-pyrido[2,3-d]pyrimidine-2-carboxylic acid (2-methoxy-ethyl)-amide] |
| > 6.00 | COCCCNC(=O)c1nc(Nc2ccc(C(F)(F)F)cc2)c2ccc(-c3ncccc3C(F)(F)F)nc2n1 [Compound 456, 4-(4-Trifluoromethyl-phenylamino)-7-(3-trifluoromethyl-pyridin-2-yl)-pyrido[2,3-d]pyrimidine-2-carboxylic acid (3-methoxy-propyl)-amide] |
| > 6.00 | O=C(NCC1CCCO1)c1nc(Nc2ccc(C(F)(F)F)cc2)c2ccc(-c3ncccc3C(F)(F)F)nc2n1 (stereo not shown) [Compound 457, 4-(4-Trifluoromethyl-phenylamino)-7-(3-trifluoromethyl-pyridin-2-yl)-pyrido[2,3-d]pyrimidine-2-carboxylic acid (tetrahydro-furan-2-ylmethyl)-amide] |
| > 6.00 | CC(C)(C)CNC(=O)c1nc(Nc2ccc(C(F)(F)F)cc2)c2ccc(-c3ncccc3C(F)(F)F)nc2n1 [Compound 458, 4-(4-Trifluoromethyl-phenylamino)-7-(3-trifluoromethyl-pyridin-2-yl)-pyrido[2,3-d]pyrimidine-2-carboxylic acid (2,2-dimethyl-propyl)-amide] |
| > 6.00 | O=C(c1nc(Nc2ccc(C(F)(F)F)cc2)c2ccc(-c3ncccc3C(F)(F)F)nc2n1)N1CCCC1 [Compound 459, Pyrrolidin-1-yl-[4-(4-trifluoromethyl-phenylamino)-7-(3-trifluoromethyl-pyridifl-2-yl)-pyrido[2,3-d]pyrimidin-2-yl]-methanone] |
| > 6.00 | O=C(c1nc(Nc2ccc(C(F)(F)F)cc2)c2ccc(-c3ncccc3C(F)(F)F)nc2n1)N1CCCCC1 [Compound 460, Piperidin-1-yl-[4-(4-trifluoromethyl-phenylamino)-7-(3-trifluorornethyl-pyridin-2-yl)-pyrido[2,3-d]pyrimidin-2-yl]-methanone] |
| > 6.00 | O=C(c1nc(Nc2ccc(C(F)(F)F)cc2)c2ccc(-c3ncccc3C(F)(F)F)nc2n1)N1CCOCC1 [Compound 461, Morpholin-4-yl-[4-(4-trifluoromethyl-phenylamino)-7-(3-trifluoromethyl-pyridin-2-yl)-pyrido[2,3-d]pyrimidin-2-yl]-methanone] |
| > 6.00 | CC1CCN(C(=O)c2nc(Nc3ccc(C(F)(F)F)cc3)c3ccc(-c4ncccc4C(F)(F)F)nc3n2)CC1 [Compound 462, (4-Methyl-piperidin-1-yl)-[4-(4-trifluoromethyl-phenylamino)-7-(3-trifluoromethyl-pyridin-2-yl)-pyrido[2,3-d]pyrimidin-2-yl]-methanone] |
| > 6.00 | O=C(c1nc(Nc2ccc(C(F)(F)F)cc2)c2ccc(-c3ncccc3C(F)(F)F)nc2n1)N1CCSCC1 [Compound 463, Thiomorpholin-4-yl-[4-(4-trifluoromethyl-phenylamino)-7-(3-trifluoromethyl-pyridin-2-yl)-pyrido[2,3-d]pyrimidin-2-yl]-methanone] |

| Structure (SMILES) | pKi |
| --- | --- |
| CN1C2CCC1CC(NC(=O)c1nc(Nc3ccc(C(F)(F)F)cc3)c3ccc(-c4ncccc4C(F)(F)F)nc3n1)C2 (stereo not shown) [Compound 445, 4-(4-Trifluoromethyl-phenylamino)-7-(3-trifluoromethyl-pyridin-2-yl)-pyrido[2,3-d]pyrimidine-2-carboxylic acid (8-methyl-8-aza-bicyclo[3.2.1]oct-3-yl)-amide] | > 6.00 |
